Laboratory results from patent publication EP0698614A1, “Endothelin-antagonizing peptide” (KYOWA HAKKO KOGYO CO., LTD., priority 1994, dated 1996).
Like-named read-outs stand apart in the source and are kept apart here.

Key:
endothelin receptor [1] = biological target: T1, endothelin receptor (Bos taurus, UniProt P28088); assay: Endothelin receptor binding inhibition (125I-endothelin-1), bovine cerebellum membrane fraction (Test Example 1); conditions: read-out: IC₅₀
T1 construct: the suspension was used as a membrane fraction liquid; from tissue; host or cells: bovine cerebellum membrane fraction
T1 sequence (P28088 27-441): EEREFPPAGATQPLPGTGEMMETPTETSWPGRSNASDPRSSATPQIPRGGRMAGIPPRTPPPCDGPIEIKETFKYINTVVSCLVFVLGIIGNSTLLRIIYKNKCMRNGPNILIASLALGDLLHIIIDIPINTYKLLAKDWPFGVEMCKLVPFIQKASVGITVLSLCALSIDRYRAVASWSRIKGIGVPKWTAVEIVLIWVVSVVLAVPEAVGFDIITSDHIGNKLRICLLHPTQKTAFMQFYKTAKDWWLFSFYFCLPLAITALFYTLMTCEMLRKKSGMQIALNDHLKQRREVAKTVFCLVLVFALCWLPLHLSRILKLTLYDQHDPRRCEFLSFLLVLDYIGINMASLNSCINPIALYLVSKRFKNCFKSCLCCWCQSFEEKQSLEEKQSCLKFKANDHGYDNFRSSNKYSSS
Method: (§1) The resulting solid substance was prepared as a suspension containing 2 mg/ml of protein, and the suspension was used as a membrane fraction liquid. […]

endothelin receptor [2] = biological target: T2, endothelin receptor (Bos taurus, UniProt P21450); assay: Endothelin receptor binding inhibition (125I-endothelin-1), bovine lung membrane fraction with RES-701-1 added (Test Example 2); conditions: read-out: IC₅₀
T2 construct: from tissue
T2 sequence (P21450 21-427): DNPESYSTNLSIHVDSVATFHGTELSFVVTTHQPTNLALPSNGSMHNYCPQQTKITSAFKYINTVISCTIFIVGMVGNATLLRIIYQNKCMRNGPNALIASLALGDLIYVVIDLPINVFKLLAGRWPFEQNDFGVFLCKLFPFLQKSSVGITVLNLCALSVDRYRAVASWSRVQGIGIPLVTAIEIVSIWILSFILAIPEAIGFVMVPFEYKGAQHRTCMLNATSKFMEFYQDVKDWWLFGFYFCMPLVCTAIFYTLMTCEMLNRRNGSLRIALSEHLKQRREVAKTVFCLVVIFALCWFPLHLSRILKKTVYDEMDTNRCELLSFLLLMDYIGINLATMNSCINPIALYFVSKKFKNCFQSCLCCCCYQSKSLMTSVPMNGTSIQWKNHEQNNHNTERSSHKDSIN
Method: as §1

Compound | IC50 (endothelin receptor [1]; Concentration causing 50 % inhibition of endothelin-1 binding, bovine cerebellum tissue membrane fraction, 25°C for 2 hours) [nM] | IC50 (endothelin receptor [2]; Concentration causing 50 % inhibition of endothelin-1 binding, bovine lung tissue membrane fraction, RES-701-1 added at […]) [nM] | IC50 (endothelin receptor [1]) [nM] | IC50 (endothelin receptor [2]) [nM]
COC(=O)[C@H](Cc1c[nH]c2ccccc12)NC(=O)[C@H](Cc1ccc(O)cc1)NC(=O)[C@H](Cc1ccc(O)cc1)NC(=O)[C@H](CC(N)=O)NC(=O)[C@H](Cc1ccccc1)NC(=O)[C@H](Cc1ccccc1)NC(=O)[C@H](Cc1c[nH]c2ccccc12)NC(=O)[C@@H]1CC(=O)NCC(=O)N[C@@H](CC(N)=O)C(=O)N[C@@H](Cc2c[nH]c3ccccc23)C(=O)N[C@@H](Cc2c[nH]cn2)C(=O)NCC(=O)N[C@@H]([C@@H](C)O)C(=O)N[C@@H](C)C(=O)N2CCC[C@H]2C(=O)N1 [(I-1)] | […] | 58 |  | 
C[C@@H]1NC(=O)[C@H]([C@@H](C)O)NC(=O)CNC(=O)[C@H](Cc2c[nH]cn2)NC(=O)[C@H](Cc2c[nH]c3ccccc23)NC(=O)[C@H](CC(N)=O)NC(=O)CNC(=O)C[C@@H](C(=O)N[C@@H](Cc2c[nH]c3ccccc23)C(=O)N[C@@H](Cc2ccccc2)C(=O)N[C@@H](Cc2ccccc2)C(=O)N[C@@H](CC(N)=O)C(=O)N[C@@H](Cc2ccc(O)cc2)C(=O)N[C@@H](Cc2ccc(O)cc2)C(=O)N[C@@H](Cc2c[nH]c3ccccc23)C(N)=O)NC(=O)[C@@H]2CCCN2C1=O [(I-3)] |  |  | 49 | > 490
